# Measured values as given in patent publication US11130752B2, “Aminopyrimidine compound” (Cardurion Pharmaceuticals, LLC, priority 2018, dated 2021).
# pIC50: −log10 of the molar value.
# How the values were obtained:
# [1] = biological target: T1, human CaMKIIδ (Homo sapiens, UniProt Q13557); experiment: In vitro CaMKII inhibitory activity (binding assay, TR-FRET); conditions: activity ranks
# T1 construct: Full-length, glutathione-S-transferase(GST)-tagged, human CaMKIIδ was purchased from Carna Biosciences; purchased Carna Biosciences (CaMKIIδ); Wako Pure Chemical Industries (calmodulin) 02-111
# How it was run: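 TR-FRET displacement of a BODIPY probe (300 nM) from 0.5 nM full-length GST-tagged human CaMKIIδ, with Tb-anti-GST, calmodulin and 1 mM CaCl2 in pH 7.6 HEPES/MgCl2 buffer. Read after 1 hr at room temperature over an eight-point 4-fold series. IC50 by logistic fit, with 3 μM parent compound as the 100% control.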
# [2] = test system: HepG2 cells; experiment: In vitro cytotoxicity (cellular ATP content, CellTiter-Glo); format: cell-based; conditions: 33 μM, 72 hr incubation
# Protocol: Evaluation of In Vitro Cytotoxicity
# To evaluate in vitro cytotoxicity of test compounds, % ATP reduction was determined in the presence of 33 μM of each test compound after 72 hr incubation.
# HepG2 cells were seeded in DMEM (Invitrogen) containing 10% FBS (Corning)+glucose (4.5 g/L) for 24 hr to allow cell adhesion. For compound treatments, compounds were diluted in DMSO and the media, followed by added to the wells (24 hr after the cell seeding) to obtain the desired final concentration (33 μM, n=2). The final DMSO concentration was 1%. After 72 hr, cellular ATP contents were measured using CellTiter-Glo Luminescent Cell Viability Assay (Promega). The % ATP reduction was determined by comparing the ATP contents in the absence and the presence of test compounds.
# [3] = test system: phospholamban (Thr17, PLN) phosphorylation, cardiac CaMKII; experiment: In vivo cardiac CaMKII inhibition (intravenous administration), P-PLN Western blot; conditions: male CD (SD) IGS rat left ventricle, 1 mg/kg bolus i.v., 0.25 hr after administration, in comparison with vehicle-treated group
# Protocol: Evaluation of In Vivo Cardiac CaMKII Inhibition (Intravenous Administration)
# To evaluate potency of test compounds to inhibit cardiac CaMKII kinase in vivo, phosphorylation levels of CaMKII-specific sites of phospholamban (Thr17, PLN) were measured in the heart of rats administered intravenously with test compounds.
# Test compounds were dissolved in N,N-dimethylacetamide and 1,3-butanediol (1:1) solution and were injected (1 mg/kg) to male CD (SD) IGS rats (8 weeks old, n=4) by bolus intravenous injection via the lateral tail vein or the femoral vein (0.5-1 mL/kg). At 0.25 hours after the injection, rats were sacrificed and the hearts were harvested. After washing the isolated hearts with ice-cold saline, connective tissues were removed on ice, and the isolated left ventricle were frozen into liquid nitrogen gas and stored at −80° C.
# (§1) The left ventricle samples were homogenized in RIPA-buffer containing phosphatase inhibitors and protease inhibitors. Samples were analyzed by Western blotting using anti-P-PLN (Thr17, Santa Cruz Biotechnology, sc-17024-R) antibody. The band intensities were quantified using an imaging system and were normalized relative to the vehicle-treated group.
# [4] = test system: phospholamban (Thr17, PLN) phosphorylation, cardiac CaMKII; experiment: In vivo cardiac CaMKII inhibition (oral administration), P-PLN Western blot; conditions: male CD (SD) IGS rat left ventricle, 30 mg/kg p.o., 4 hr after administration, in comparison with vehicle-treated group, read-out: Reduction rate of P-PLN
# Protocol: Evaluation of In Vivo Cardiac CaMKII Inhibition (Oral Administration)
# To evaluate potency of test compounds to inhibit cardiac CaMKII kinase in vivo, phosphorylation levels of CaMKII-specific sites of phospholamban (Thr17, PLN) were measured in the heart of rats administered orally with test compounds.
# Test compounds were suspended in 0.5% [w/v]methylcellulose/water solution and administered (30 mg/kg) to male CD (SD) IGS rat (6-8 weeks old, n=4) by the p.o. route (5 mL/kg). At 4 hours after the administration, rats were sacrificed and the hearts were harvested. After washing the isolated hearts with ice-cold saline, connective tissues were removed on ice, and the isolated left ventricle were frozen into liquid nitrogen gas and stored at −80° C.
# as §1
Compound,"pIC50 ([1]; Table 1, GST-tagged human CaMKIIδ)",% ATP reduction [2],melting point,Reduction rate of P-PLN [3],inhibition in vivo at 30 mg/kg [4],"pIC50 ([1]; Table 4, GST-tagged human CaMKIIδ)"
"COCCCOc1nn([C@H]2CC[C@H](N3C[C@@H](C)O[C@@H](C)C3)CC2)cc1Nc1ncc(-c2ccc(C#N)c(O[C@@H](C)Cn3cnnn3)c2)cn1 [Example 143, 2-(((S)-1-(1H-tetrazol-1-yl)propan-2-yl)oxy)-4-(2-((1-((1r,4r)-4-((2S,6R)-2,6-dimethylmorpholino)cyclohexyl)-3-(3-methoxypropoxy)-1H-pyrazol-4-yl)amino)pyrimidin-5-yl)benzonitrile]",> 8.00,12%,113 °C,>30%,> 30%,
"C[C@@H]1CN([C@H]2CC[C@H](n3cc(Nc4ncc(-c5ccc(C#N)c(O[C@@H](C)Cn6cnnn6)c5)cn4)c(OCCC(C)(C)O)n3)CC2)C[C@H](C)O1 [Example 485, 2-(((S)-1-(1H-tetrazol-1-yl)propan-2-yl)oxy)-4-(2-((1-((1r,4r)-4-((2S,6R)-2,6-dimethylmorpholino)cyclohexyl)-3-(3-hydroxy-3-methylbutoxy)-1H-pyrazol-4-yl)amino)pyrimidin-5-yl)benzonitrile]",,7%,,>30%,,> 8.00
